Experimental data from paper PMC8774970 (Foods, 2022).
Marks after values point to notes of the source that are not given here.

Tests used:
[1] = Silver nanoparticle-based method (SNP)
Experimental: (§1) All experiments were realized in 96-well microplates, and the absorbance measurements were carried out on a Multimode Plate Reader, EnSpire, PerkinElmer, Waltham (US) United States of America. […] The results were expressed as 50% inhibition (IC50) and absorbance at 0.5 (A0.5) concentrations that are able to inhibit/block/chelate 50% or reduce the absorbance to 0.5 of the radical, enzyme catalytic sites or the formation of metallic complexes/cations.
The reduction of Ag^+ to spherical silver nanoparticles (SNPs) was developed by Özyürek et al.. […] The microplate was incubated for 30 min at 25 °C, and the absorbance was read at 423 nm. […]

[2] = Cupric reducing antioxidant capacity (CUPRAC) assay; settings: concentration at 0.50 absorbance
Experimental: as §1
The method described by Reference was used with no modifications. […] The result was given as A0.5 value.

[3] = Galvinoxyl radical (GOR) scavenging assay
Experimental: as §1
The result was given as IC50 value.

O-Phenanthroline assay = settings: concentration at 0.50 absorbance
Experimental: as §1
Next, it was incubated for 20 min at 30 °C before measuring the absorbance at 510 nm. The result was given as A0.5 value.

[4] = Hydroxyl radical scavenging assay
Experimental: as §1
It was evaluated according to the modified method of Smirnoff and Cumbes. […] The microplate was incubated for 30 min at 37 °C, and 36 μL H2O was added; immediately, the absorbance was measured at 510 nm. The result was given as IC50 value.

Reducing power test = settings: concentration at 0.50 absorbance
Experimental: as §1
Later, 50 μL of TCA (trichloroacetic acid) (10%) and 10 μL of ferric chloride (0.1%) were added before finally measuring the mixture’s absorbance at 700 nm.

[5] = β-Carotene/linoleic acid bleaching test
Experimental: as §1
Proceeding as described by Marco [23], with minor changes: 0.5 mg of β-carotene, 1 mL of chloroform, 25 μL of linoleic acid, and 200 μL of Tween 40 were added, forming an emulsified mixture. Then, it was evaporated under vacuum, and 50 mL of hydrogen peroxide (30%) were added with vigorous shaking. The absorbance at 470 nm should give a value between (0.8–0.9).

[6] = DPPH scavenging procedure
Experimental: as §1
Results were provided as IC50 values, and the I% were calculated using the above formula (*).

[7] = ABTS scavenging procedure
Experimental: as §1
The ABTS^•+ scavenging ability was performed spectrophotometrically according to the modified procedure of Re et al.. First, the ABTS^•+ was prepared as follows: 2 mM of ABTS was dissolved in H2O with 2.45 mM potassium persulfate (K2S2O8), and the mixture was conserved at ambient temperature for 16 h in obscurity. […] Thereafter, the microplate was incubated for 10 min before measuring the absorbance at 734 nm. The equation below (*) was used to calculate the inhibition percentage of ABTS radical, and results were presented as IC50 values. I% = ((Ac − As)/Ac) × 100 (*)(1)

urease = biological target: T1, urease (Canavalia ensiformis, UniProt P07374); assay type: biochemical, Canavalia ensiformis (Jack bean)
T1 construct: purchased Sigma Aldrich
T1 sequence (P07374 whole entry, looked up): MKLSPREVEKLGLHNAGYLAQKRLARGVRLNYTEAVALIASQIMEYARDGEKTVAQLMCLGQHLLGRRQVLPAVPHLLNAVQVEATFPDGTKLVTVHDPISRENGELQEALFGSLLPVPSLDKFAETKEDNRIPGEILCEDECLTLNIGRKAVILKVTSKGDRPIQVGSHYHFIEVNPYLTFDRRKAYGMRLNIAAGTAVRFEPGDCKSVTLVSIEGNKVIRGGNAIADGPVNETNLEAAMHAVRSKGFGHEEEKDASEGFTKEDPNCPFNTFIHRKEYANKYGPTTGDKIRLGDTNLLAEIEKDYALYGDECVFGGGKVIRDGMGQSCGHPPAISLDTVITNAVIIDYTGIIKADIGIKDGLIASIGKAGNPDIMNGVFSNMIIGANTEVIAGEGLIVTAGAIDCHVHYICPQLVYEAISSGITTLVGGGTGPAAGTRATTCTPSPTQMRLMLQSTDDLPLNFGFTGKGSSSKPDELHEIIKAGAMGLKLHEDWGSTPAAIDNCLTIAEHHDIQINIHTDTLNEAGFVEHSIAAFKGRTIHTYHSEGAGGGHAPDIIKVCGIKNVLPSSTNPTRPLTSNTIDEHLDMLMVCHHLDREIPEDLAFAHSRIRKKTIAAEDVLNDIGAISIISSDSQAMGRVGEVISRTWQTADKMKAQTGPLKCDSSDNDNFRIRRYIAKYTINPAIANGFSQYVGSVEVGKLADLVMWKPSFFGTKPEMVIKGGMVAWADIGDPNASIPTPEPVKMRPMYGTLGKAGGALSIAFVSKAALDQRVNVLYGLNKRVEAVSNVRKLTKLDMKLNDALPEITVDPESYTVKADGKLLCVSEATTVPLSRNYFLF
Experimental: Ultrapure water was obtained by a Milli-Q system (Millipore, Bedford, MA, USA).
All experiments were realized in 96-well microplates, and the absorbance measurements were carried out on a Multimode Plate Reader, EnSpire, PerkinElmer, Waltham (US) United States of America. […] The EamCE solution was prepared at seven different concentrations, (800, 400, 200, 100, 50, 25, 12.5 µg/mL) and every assay was realized in triplicate. The results were expressed as 50% inhibition (IC50) and absorbance at 0.5 (A0.5) concentrations that are able to inhibit/block/chelate 50% or reduce the absorbance to 0.5 of the radical, enzyme catalytic sites or the formation of metallic complexes/cations.
Urease inhibitory capability was determined by measuring ammonia production using the indophenol method [35]. Briefly, the reaction mixture consisted of 25 μL of enzyme solution ((5 U/mL) (Jack bean urease)), 10 μL of the EamCE solution, and 50 μL of urea substrate solution, then it was incubated at 30 °C for 15 min. Then, 45 μL of phenol reagent (2 g of phenol (C6H5OH) in 25 mL H2O + 25 mg of Na2[Fe(CN)5NO],2H2O in 25 mL H2O) and 70 μL of basic reagent (0.7125 g of NaOH in 25 mL H2O + 1.175 mL of NaOCl in 25 mL H2O) were added later. After 50 min of incubation, the absorbance was measured at 630 nm, and result was given as IC50 value.

[8] = Superoxide alkaline DMSO test
Experimental: as §1
The superoxide radical was produced as described Kunchandy’s method: 30 µL of NBT (nitroblue tetrazolium) (1 mg/mL) and 40 μL of sample were added to 130 μL alkaline DMSO (1.0 mL DMSO, 5 mMNaOH, 100 µL H2O). The absorbance of the reaction mixture was measured at 560 nm, and results were provided as IC50 values.

| Compound | SNP [1] | CUPRAC (A0.5) [2] | GOR (IC50) [3] | Phenonthroline (A0.5) (O-Phenanthroline assay) | Hydroxyl Radical (IC50) [4] | Reducing Power (A0.5) (Reducing power test) | Beta Carotene (IC50) [5] | DPPH (IC50) [6] | ABTS (IC50) [7] | Anti-Urease IC50 (urease) | DMSO Alcalin (IC50) [8] |
| --- | --- | --- | --- | --- | --- | --- | --- | --- | --- | --- | --- |
| O=C1O[C@H]([C@@H](O)CO)C(O)=C1O [Ascorbic Acid] | 7.14 ± 0.05 ^b µg/mL | 8.31 ± 0.15 ^d µg/mL | 5.02 ± 0.01 ^d µg/mL | 3.08 ± 0.02 ^d µg/mL | 32.33 ± 1.17 ^b µg/mL | 6.77 ± 1.15 ^c µg/mL | – | – | – | – | – |
| COc1ccc(O)c(C(C)(C)C)c1 [BHA] | – | 5.35 ± 0.71 ^c µg/mL | 3.32 ± 0.18 ^c µg/mL | 0.93 ± 0.07 ^c µg/mL | – | – | 0.91 ± 0.01 ^c µg/mL | 6.14 ± 0.41 ^c µg/mL | 1.81 ± 0.10 ^c µg/mL | – | – |
| Cc1cc(C(C)(C)C)c(O)c(C(C)(C)C)c1 [BHT] | – | 8.97 ± 3.94 ^b µg/mL | 5.38 ± 0.06 ^b µg/mL | 2.24 ± 0.17 ^b µg/mL | – | – | 1.05 ± 0.03 ^b µg/mL | 12.99 ± 0.41 ^b µg/mL | 1.29 ± 0.30 ^b µg/mL | – | – |
| NC(N)=S [Thiourea] | – | – | – | – | – | – | – | – | – | 11.57 ± 0.68 ^b µg/mL | – |
| Cc1c(C)c2c(c(C)c1O)CCC(C)(C(=O)O)O2 (stereo not shown) [Trolox] | 34.17 ± 1.23 ^c µg/mL | 8.69 ± 0.14 ^e µg/mL | 4.31 ± 0.05 ^e µg/mL | 5.21 ± 0.27 ^e µg/mL | – | 5.25 ± 0.20 ^e µg/mL | – | 5.12 ± 0.21 ^e µg/mL | 3.21 ± 0.06 ^d µg/mL | – | – |
| Cc1c(C)c2c(c(C)c1O)CC[C@@](C)(CCC[C@H](C)CCC[C@H](C)CCCC(C)C)O2 [α-Tocopherol] | – | – | – | – | – | 34.93 ± 2.38 ^b µg/mL | – | 13.02 ± 5.17 ^d µg/mL | – | – | ˂3.125 µg/mL |
| Tannic Acid | – | – | – | – | – | 5.39 ± 0.91 ^d µg/mL | – | – | – | – | <3.125 µg/mL |
